This is an account of results in US20240166646A1, “1H-PYRROLO[2,3-B]PYRIDINE DERIVATIVES AS BCL-2 INHIBITORS FOR THE TREATMENT OF NEOPLASTIC AND AUTOIMMUNE DISEASES” (Newave Pharmaceutical Inc., priority 2020, published 2024).

Each structure is given as a SMILES string. Where a name gives a salt, the structure may show the parent alone.

The subject of data set [1] is BCL-2-dependent acute lymphoblastic leukemia (ALL) cell line RS4; 11 with G101V mutation. The experiment in a line: In vitro anti-proliferation assay (ATPlite) in RS4; 11 with G101V mutation. The format is cell-based. Conditions: about 72 hours incubation, medium with 5% FBS or 10% normal human serum, ATPlite luminescence. Put shortly:
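About 1×10^4 cells per well exposed to a compound dose range for about 72 h in medium with 5% FBS or 10% normal human serum. ATP content read by ATPlite luminescence after lysis. IC50 derived from dose-response.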
In general terms: Cellular ATP, detected with luciferase, serves as a proxy for viable cell number.

For a further data set, the target named is Mcl-1 (Homo sapiens (Human), UniProt Q07820). Conditions: cited from earlier work.
A further data set concerns RS4; 11 cells. To be noted: cited from earlier work.
In the next data set the test system is CLL. To be noted: average; read-out: average EC50, apoptosis in CLL; cited from earlier work.
The next data set concerns RS4; 11 xenografts. Conditions: single dose of 100 mg/kg; cited from earlier work.
A further data set concerns DoHH2 xenograft. To be noted: single agent or in combination with Bendamustine and other agents; cited from earlier work.
The subject of a further data set is Granta-519 xenograft. Conditions: single agent or in combination with Bendamustine and other agents; cited from earlier work.
For data set [2], the system named is CLL who have 17p deletion. To be noted: Human Phase I and II data; cited from earlier work.
A further data set addresses Bcl-w (Homo sapiens (Human), UniProt Q92843). To be noted: cited from earlier work.
Another data set relates to SCLC H146 cell line. To be noted: read-out: IC50 against SCLC H146 cell line; cited from earlier work.
The test system of the next data set is H345 xenograft. Conditions: 100 mg/kg/day, H345 xenograft model; cited from earlier work.
Data set [3] concerns xenograft models of small-cell lung cancer and acute lymphoblastic leukemia. To be noted: oral administration, alone; cited from earlier work.
The test system of a further data set is circulating platelets. To be noted: clinical trial, patients; cited from earlier work.
For data set [4] the following is noted: in vivo; cited from earlier work.
The conditions of data set [5]: cited from earlier work.
The test system of another data set is established tumors. To be noted: mouse, in vivo; cited from earlier work.
The next data set deals with Bcl-2 (Homo sapiens (Human), UniProt P10415). The experiment in a line: Bcl-2 competition binding (fluorescence polarization) assay. Conditions: fluorescein labeled BH3 peptide 15 nM, Bcl-2 protein 30 nM, 3 hours of incubation at room temperature. The gist of the method: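 Fluorescence polarization competition of 15 nM labeled 23-mer BH3 peptide with 30 nM purified Bcl-2, in 20 mM Hepes pH 7.0, 50 mM KCl, 5 mM MgCl2, 20 mM Na2MoO4, 0.1 mg/ml bovine gamma globulin, 0.01% NP40. Compounds 20 μM to 2 nM final; mP read after 3 h at room temperature, background-subtracted. IC50 from sigmoidal dose-response fit.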
(Fluorescence polarisation rises when a labelled molecule tumbles more slowly, as on binding a larger partner.)

Chain of Bcl-2 (P10415 whole entry): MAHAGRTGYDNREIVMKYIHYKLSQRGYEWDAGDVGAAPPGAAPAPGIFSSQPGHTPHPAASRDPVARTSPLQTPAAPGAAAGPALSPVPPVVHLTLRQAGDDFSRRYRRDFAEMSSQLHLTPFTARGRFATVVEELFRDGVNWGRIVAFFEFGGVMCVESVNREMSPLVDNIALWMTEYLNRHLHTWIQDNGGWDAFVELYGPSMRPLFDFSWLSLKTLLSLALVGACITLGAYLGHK
Chain of Bcl-w (Q92843 whole entry): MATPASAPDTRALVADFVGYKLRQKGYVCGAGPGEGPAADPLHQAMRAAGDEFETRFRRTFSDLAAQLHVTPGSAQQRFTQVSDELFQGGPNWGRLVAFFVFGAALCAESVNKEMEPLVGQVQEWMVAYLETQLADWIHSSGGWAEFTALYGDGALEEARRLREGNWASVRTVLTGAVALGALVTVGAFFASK
Chain of Mcl-1 (Q07820 whole entry): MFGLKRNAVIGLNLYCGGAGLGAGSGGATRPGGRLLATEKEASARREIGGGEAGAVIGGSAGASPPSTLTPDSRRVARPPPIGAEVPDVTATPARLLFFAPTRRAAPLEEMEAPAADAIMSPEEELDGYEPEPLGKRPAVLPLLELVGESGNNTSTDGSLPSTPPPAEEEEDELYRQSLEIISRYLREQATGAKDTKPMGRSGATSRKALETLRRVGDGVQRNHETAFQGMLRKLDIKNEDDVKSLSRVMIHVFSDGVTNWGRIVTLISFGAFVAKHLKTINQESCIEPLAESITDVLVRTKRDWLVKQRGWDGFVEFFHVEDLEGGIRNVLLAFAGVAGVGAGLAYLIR

Turning to `CC1(C)CCC(CN2CCN(c3ccc(C(=O)NS(=O)(=O)c4ccc(NCC5CCOCC5)c([N+](=O)[O-])c4)c(Oc4cnc5[nH]ccc5c4)c3)CC2)=C(c2ccc(Cl)cc2)C1` [ABT-199], the IC50 in [1] (RS4-11) is 1200 nM. The “activity to Mcl-1” value on Mcl-1 is “no activity”. Besides, the results for the concentration for a half-maximal effect (EC50) in the data set on RS4; 11 cells and in the data set with CLL were 8 nM and 3 nM, respectively. Moreover, the “apoptosis in RS4; 11 cells” value in the data set with RS4; 11 cells (cytochrome c release, caspase activation, accumulation of sub-G0/G1 DNA) is listed as “induces a rapid apoptosis”. Besides, the “maximal tumor growth inhibition” value in the data set with RS4; 11 xenografts is listed as 95%. Moreover, the tumor growth delay in the data set with RS4; 11 xenografts is 152%. The “xenograft growth DoHH2” value with DoHH2 xenograft is reported as “inhibits xenograft growth”. Moreover, in the data set on Granta-519 xenograft, the “xenograft growth Granta-519” value is given as “inhibits xenograft growth”. Further, the clinical efficacy entry in data set [2] is “highly efficacious”.

As for `CC1(C)CCC(c2ccc(Cl)cc2)=C(CN2CCN(c3ccc(C(=O)NS(=O)(=O)c4ccc(N[C@H](CCN5CCOCC5)CSc5ccccc5)c(S(=O)(=O)C(F)(F)F)c4)cc3)CC2)C1` [ABT-263], the Ki at Bcl-w is 1 nM. Further, in the data set with SCLC H146 cell line, the 50% inhibitory concentration (IC50) was 110 nM. For the same compound, in the data set on H345 xenograft, the TGI is on record as 80% and the “treated tumors indicating at least a 50% reduction in tumor volume” value is 20%. In addition, the tumor regression entry in data set [3] is given as “complete tumor regressions”. Moreover, in the data set on circulating platelets, the “effect on number of circulating platelets” value is on record as “rapid, concentration-dependent decrease in the number of circulating platelets”. Also, the oral bioavailability result in data set [4] was “orally bioavailable”.

As for `CN(C)CC[C@H](CSc1ccccc1)Nc1ccc(S(=O)(=O)NC(=O)c2ccc(N3CCN(Cc4ccccc4-c4ccc(Cl)cc4)CC3)cc2)cc1[N+](=O)[O-]` [ABT-737], the oral bioavailability result in [4] is “not orally bioavailable”. Moreover, the aqueous solubility entry in data set [5] is given as “low aqueous solubility”. For the same compound, the “efficacy in animal models” value in the data set on established tumors is “improves survival, causes regression of established tumors, and produces cures in a high percentage of the mice”.

In the case of `Cc1ccccc1[C@@H]1COCCCN1C1CC2(CCN(c3ccc(C(=O)NS(=O)(=O)c4ccc(NCC5CCOCC5)c([N+](=O)[O-])c4)c(N4c5cc6cc[nH]c6nc5O[C@@H]5COC[C@H]54)c3)CC2)C1` [Example 65, N-((3-nitro-4-(((tetrahydro-2H-pyran-4-yl)methyl)amino)phenyl)sulfonyl)-2-((5aR,8aS)-5a,6,8,8a-tetrahydrofuro[3,4-b]pyrrolo[3′,2′:5,6]pyrido[3,2-e][1,4]oxazin-5(1H)-yl)-4-(2-((R)-3-(o-tolyl)-1,4-oxazepan-4-yl)-7-azaspiro[3.5]nonan-7-yl)benzamide], the values for the concentration for half-maximal inhibition (IC50) (at Bcl-2; in data set [1] (RS4-11)) were 0.425 nM and more than 1000 nM, respectively.

For `Cc1ccccc1[C@H]1COCCCN1C1CC2(CCN(c3ccc(C(=O)NS(=O)(=O)c4ccc(NCC5CCOCC5)c([N+](=O)[O-])c4)c(N4c5cc6cc[nH]c6nc5O[C@@H]5COC[C@H]54)c3)CC2)C1` [Example 66, 2-[(11R,15S)-13,16-dioxa-2,4,10-triazatetracyclo[7.7.0.0^{3,7}.0^{11,15}]hexadeca-1(9),2,5,7-tetraen-10-yl]-4-{2-[(3S)-3-(2-methylphenyl)-1,4-oxazepan-4-yl]-7-azaspiro[3.5]nonan-7-yl}-N-{3-nitro-4-[(oxan-4-ylmethyl)amino]benzenesulfonyl}benzamide], the results for the IC50 (at Bcl-2; in data set [1]) were 0.564 nM and 296 nM, respectively.

As for `CC(C)Oc1ccccc1[C@@H]1CCCN1C1CC2(CCN(c3ccc(C(=O)NS(=O)(=O)c4ccc(NCC5CCOCC5)c([N+](=O)[O-])c4)c(N4c5cc6cc[nH]c6nc5O[C@H]5COCC[C@@H]54)c3)CC2)C1` [Example 67, 2-[(3R,8S)-2,5-dioxa-9,15,17-triazatetracyclo[8.7.0.0^{3,8}.0^{12,16}]heptadeca-1(10),11,13,16-tetraen-9-yl]-4-{2-[(2S)-2-(2-isopropoxyphenyl)pyrrolidin-1-yl]-7-azaspiro[3.5]nonan-7-yl}-N-{3-nitro-4-[(oxan-4-ylmethyl)amino]benzenesulfonyl}benzamide hydrochloride], the IC50 was 0.229 nM on Bcl-2 (hydrochloride) and 50.6 nM in [1] (hydrochloride).

Take `Cc1ccccc1[C@@H]1CCCN1C1CC2(CCN(c3ccc(C(=O)NS(=O)(=O)c4ccc(NCC5CCOCC5)c([N+](=O)[O-])c4)c(N4C[C@H]5CCOC[C@@H]5Oc5nc6[nH]ccc6cc54)c3)CC2)C1` [Example 68, 2-[(3R,8R)-2,5-dioxa-10,16,18-triazatetracyclo[9.7.0.0^{3,8}.0^{13,17}]octadeca-1(11),12,14,17-tetraen-10-yl]-4-{2-[(2S)-2-(2-methylphenyl)pyrrolidin-1-yl]-7-azaspiro[3.5]nonan-7-yl}-N-{3-nitro-4-[(oxan-4-ylmethyl)amino]benzenesulfonyl}benzamide]: the IC50 stood at 0.303 nM on Bcl-2 and 40.7 nM in [1].

Broadly, the IC50 is the midpoint of a concentration-inhibition curve. What is called EC50 is the midpoint of the concentration-response curve. One may read the Ki as a measure of affinity in units of concentration, obtained from inhibition or displacement. What is called TGI is the reduction of tumour growth relative to the control group.
